Data reported in article PMC3914206.

What was measured:
Format in all cases: binding
Design in all cases: KINOMEscan: ABL1(F317L)-phosphorylated / KINOMEscan: ABL1(H396P)-nonphosphorylated / KINOMEscan: ABL1(H396P)-phosphorylated / KINOMEscan: ABL1(M351T)-phosphorylated / KINOMEscan: ABL1(T315I)-phosphorylated / KINOMEscan: ABL1-nonphosphorylated / KINOMEscan: ABL1-phosphorylated / KINOMEscan: ACVR2A / KINOMEscan: ACVR2B / KINOMEscan: ADCK3 / KINOMEscan: ADCK4 / KINOMEscan: AKT1 / KINOMEscan: AKT3 / KINOMEscan: ALK / KINOMEscan: ARK5 / KINOMEscan: AURKA / KINOMEscan: AURKC / KINOMEscan: BIKE / KINOMEscan: BMPR1A / KINOMEscan: BMPR1B / KINOMEscan: BMX / KINOMEscan: BRK / KINOMEscan: BRSK1 / KINOMEscan: BRSK2 / KINOMEscan: CAMK1 / KINOMEscan: CAMK1D / KINOMEscan: CAMK1G / KINOMEscan: CAMK2A / KINOMEscan: CAMK2B / KINOMEscan: AAK1 / KINOMEscan: CAMK2D / KINOMEscan: CAMK2G / KINOMEscan: ABL1(F317I)-nonphosphorylated / KINOMEscan: ABL1(F317I)-phosphorylated / KINOMEscan: ABL1(F317L)-nonphosphorylated: unit: % Ctrl
Details in all cases: Compound Concentration 10 µM
panel of 442 kinases [1] = molecular target: T1, panel of 442 kinases (Homo sapiens, UniProt Q9Y6R4)
T1 construct: purchased KINOMEscan
Source text: (§1) We assessed the selectivity of members of this scaffold using the KINOMEscan methodology across a near comprehensive panel of 442 kinases [[18,27]].

panel of 442 kinases [2] = molecular target: T2, panel of 442 kinases (Homo sapiens, UniProt Q9UQM7)
T2 construct: purchased KINOMEscan
Source text: as §1

panel of 442 kinases [3] = molecular target: T3, panel of 442 kinases (Homo sapiens, UniProt O14965)
T3 construct: purchased KINOMEscan
T3 sequence (O14965 1-403): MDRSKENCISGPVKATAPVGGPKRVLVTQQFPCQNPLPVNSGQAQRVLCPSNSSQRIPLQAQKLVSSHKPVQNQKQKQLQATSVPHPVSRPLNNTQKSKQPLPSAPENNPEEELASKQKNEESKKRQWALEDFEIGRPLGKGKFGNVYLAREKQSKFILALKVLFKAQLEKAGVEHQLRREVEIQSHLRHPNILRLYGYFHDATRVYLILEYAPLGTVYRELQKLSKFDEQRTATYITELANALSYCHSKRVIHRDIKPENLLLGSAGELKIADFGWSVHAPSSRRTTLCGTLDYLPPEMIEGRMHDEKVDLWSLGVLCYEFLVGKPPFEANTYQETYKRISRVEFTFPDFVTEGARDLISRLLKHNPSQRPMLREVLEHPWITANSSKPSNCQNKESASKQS
Source text: as §1

T2 sequence (Q9UQM7 whole entry): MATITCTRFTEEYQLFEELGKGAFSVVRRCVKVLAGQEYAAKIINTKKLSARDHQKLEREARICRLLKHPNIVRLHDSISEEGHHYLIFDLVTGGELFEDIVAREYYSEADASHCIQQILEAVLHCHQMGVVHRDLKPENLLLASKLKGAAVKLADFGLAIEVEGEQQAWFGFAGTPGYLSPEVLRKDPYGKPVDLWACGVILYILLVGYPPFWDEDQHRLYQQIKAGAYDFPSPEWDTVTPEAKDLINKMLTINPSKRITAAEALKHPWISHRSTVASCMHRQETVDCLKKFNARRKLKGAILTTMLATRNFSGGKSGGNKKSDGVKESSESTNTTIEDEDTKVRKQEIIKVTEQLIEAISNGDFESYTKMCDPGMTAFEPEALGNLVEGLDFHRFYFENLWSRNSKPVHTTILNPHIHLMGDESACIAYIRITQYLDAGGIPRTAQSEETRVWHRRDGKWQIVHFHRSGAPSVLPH
T1 sequence (Q9Y6R4 whole entry): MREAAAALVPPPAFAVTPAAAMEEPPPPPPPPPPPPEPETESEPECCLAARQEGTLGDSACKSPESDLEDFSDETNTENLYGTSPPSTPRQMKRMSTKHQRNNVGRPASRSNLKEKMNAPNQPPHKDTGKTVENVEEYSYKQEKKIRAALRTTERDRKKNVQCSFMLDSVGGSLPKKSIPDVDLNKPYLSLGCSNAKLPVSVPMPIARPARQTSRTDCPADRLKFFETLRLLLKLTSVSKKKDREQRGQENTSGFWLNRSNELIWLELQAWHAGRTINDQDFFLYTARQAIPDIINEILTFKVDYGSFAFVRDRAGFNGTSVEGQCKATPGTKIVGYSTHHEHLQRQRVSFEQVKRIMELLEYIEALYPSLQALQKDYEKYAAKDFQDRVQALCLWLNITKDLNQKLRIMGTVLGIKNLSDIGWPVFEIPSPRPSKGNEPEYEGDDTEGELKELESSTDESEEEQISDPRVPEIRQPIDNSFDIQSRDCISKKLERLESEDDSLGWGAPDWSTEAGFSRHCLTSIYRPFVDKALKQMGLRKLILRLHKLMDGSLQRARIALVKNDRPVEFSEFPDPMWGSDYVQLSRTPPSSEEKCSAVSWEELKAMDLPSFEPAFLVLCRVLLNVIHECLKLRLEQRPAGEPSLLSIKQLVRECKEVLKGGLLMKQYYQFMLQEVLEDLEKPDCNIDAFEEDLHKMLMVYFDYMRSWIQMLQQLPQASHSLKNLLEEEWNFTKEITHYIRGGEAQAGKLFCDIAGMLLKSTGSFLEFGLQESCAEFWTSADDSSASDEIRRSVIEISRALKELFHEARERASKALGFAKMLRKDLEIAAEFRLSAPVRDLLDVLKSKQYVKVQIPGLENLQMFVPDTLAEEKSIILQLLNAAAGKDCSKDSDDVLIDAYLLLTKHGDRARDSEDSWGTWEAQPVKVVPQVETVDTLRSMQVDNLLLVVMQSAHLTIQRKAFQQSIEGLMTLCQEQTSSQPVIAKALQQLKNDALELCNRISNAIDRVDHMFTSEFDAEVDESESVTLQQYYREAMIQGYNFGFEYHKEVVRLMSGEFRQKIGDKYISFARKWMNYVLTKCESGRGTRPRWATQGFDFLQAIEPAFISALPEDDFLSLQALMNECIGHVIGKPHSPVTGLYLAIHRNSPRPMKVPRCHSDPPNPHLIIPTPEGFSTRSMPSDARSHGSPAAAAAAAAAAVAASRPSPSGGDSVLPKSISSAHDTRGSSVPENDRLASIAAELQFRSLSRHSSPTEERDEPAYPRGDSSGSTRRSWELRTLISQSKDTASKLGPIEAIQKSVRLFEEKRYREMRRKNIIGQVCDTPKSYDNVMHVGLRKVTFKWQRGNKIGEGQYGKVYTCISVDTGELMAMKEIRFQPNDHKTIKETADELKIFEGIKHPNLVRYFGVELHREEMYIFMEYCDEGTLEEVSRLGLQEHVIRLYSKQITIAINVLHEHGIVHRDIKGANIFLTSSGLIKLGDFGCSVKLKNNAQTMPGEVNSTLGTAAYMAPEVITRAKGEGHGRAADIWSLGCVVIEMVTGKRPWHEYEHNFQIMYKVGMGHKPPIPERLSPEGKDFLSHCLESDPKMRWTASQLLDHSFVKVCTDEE

| SMILES | KINOMEscan: MAP3K4 (panel of 442 kinases [1]) | KINOMEscan: CAMK2A (panel of 442 kinases [2]) | KINOMEscan: AURKA (panel of 442 kinases [3]) |
| --- | --- | --- | --- |
| COc1cc(C(=O)N2CCC(N3CCN(C)CC3)CC2)ccc1Nc1ncc2c(n1)N(C1CCCC1)c1ccccc1C(=O)N2C [Compound 25, 11-cyclopentyl-2-((2-methoxy-4-(4-(4-methylpiperazin-1-yl)piperidine-1-carbonyl)phenyl)amino)-5-methyl-5H-benzo[e]pyrimido[5,4-b][1,4]diazepin-6(11H)-one] | 100 | 81 | 28 |
| CCOc1cc(C(=O)N2CCC(N3CCN(C)CC3)CC2)ccc1Nc1ncc2c(n1)N(C1CCCC1)c1ccccc1C(=O)N2C [Compound 26] | 100 | 100 | 100 |
| COc1cc(C(=O)N2CCC(N3CCN(C)CC3)CC2)ccc1Nc1ncc2c(n1)N1CCc3cccc(c31)C(=O)N2C [Compound 24] | – | 44 | 28 |
| COc1cc(C(=O)N2CCC(N3CCN(C)CC3)CC2)ccc1Nc1ncc2c(n1)N(C)c1ccccc1C(=O)N2C [15 (LRRK2-IN-1)] | 100 | 21 | 1.2 |
